From patent US9260429B2, “Pyrido[3,4-B]indoles and methods of use” (Medivation Technologies, Inc., priority 2008, dated 2016) come the findings set out here.

The target in assay [1] is T1, human recombinant dopamine D2L receptor (Homo sapiens, UniProt P14416).
T1 construct: expressed in transfected cells; host or cells: CHO cells
Briefly: Dopamine D2L radioligand binding ([3H]Spiperone). The following applies: for inhibition at 3 µM: compound concentration 3 μM. In a few lines:
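CHO-expressed receptor in 50 mM Tris-HCl pH 7.4 with ascorbic acid, 0.001% BSA, 150 mM NaCl; 0.16 nM [3H]spiperone, 120 min at 25 °C; nonspecific binding with haloperidol.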

The target of assay [2] is T2, human recombinant serotonin (5-Hydroxytryptamine) 5-HT7 receptor (Homo sapiens, UniProt P34969).
T2 construct: expressed in transfected cells; host or cells: CHO cells
T2 sequence (P34969 whole entry): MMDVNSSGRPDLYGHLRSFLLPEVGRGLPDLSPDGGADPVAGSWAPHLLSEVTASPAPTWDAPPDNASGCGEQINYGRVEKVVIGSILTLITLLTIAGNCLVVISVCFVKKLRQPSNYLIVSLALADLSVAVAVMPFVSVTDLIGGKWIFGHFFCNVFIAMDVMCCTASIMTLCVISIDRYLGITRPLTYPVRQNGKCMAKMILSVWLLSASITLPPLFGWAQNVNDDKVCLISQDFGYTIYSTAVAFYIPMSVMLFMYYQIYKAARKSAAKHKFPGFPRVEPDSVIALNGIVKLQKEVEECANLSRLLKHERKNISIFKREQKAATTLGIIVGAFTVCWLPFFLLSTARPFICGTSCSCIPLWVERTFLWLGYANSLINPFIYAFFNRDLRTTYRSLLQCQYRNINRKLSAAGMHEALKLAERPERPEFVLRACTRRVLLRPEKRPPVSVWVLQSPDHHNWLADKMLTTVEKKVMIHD
In words: Serotonin 5-HT7 radioligand binding ([3H]LSD). In a few lines:
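CHO-expressed human 5-HT7 receptor with 5.5 nM [3H]LSD in 50 mM Tris-HCl pH 7.4, 10 mM MgCl2, 0.5 mM EDTA, 2 h at 25 °C; nonspecific binding defined with serotonin. Filtration and counting. Compounds at ≤1 μM, 1% DMSO; % inhibition of specific binding.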

The mark [3] stands for this setting: 2 h, 1 μM ligand conc., read-out: Percent Inhibition of ligand binding Dopamine (1 μM ligand conc.) D2L.
The mark [4] stands for this setting: 2 h, read-out: Percent Inhibition of ligand binding Serotonin (1 μM ligand concentration) 5-HT7.
Where [5] appears, read: compound concentration 1 μM, read-out: Percentage inhibition of ligand binding to D2L receptor.
The mark [6] stands for this setting: read-out: Percentage inhibition of ligand binding to D2L receptor.

Where two headings read alike, the source gives them in different places.

T1 sequence (P14416 whole entry): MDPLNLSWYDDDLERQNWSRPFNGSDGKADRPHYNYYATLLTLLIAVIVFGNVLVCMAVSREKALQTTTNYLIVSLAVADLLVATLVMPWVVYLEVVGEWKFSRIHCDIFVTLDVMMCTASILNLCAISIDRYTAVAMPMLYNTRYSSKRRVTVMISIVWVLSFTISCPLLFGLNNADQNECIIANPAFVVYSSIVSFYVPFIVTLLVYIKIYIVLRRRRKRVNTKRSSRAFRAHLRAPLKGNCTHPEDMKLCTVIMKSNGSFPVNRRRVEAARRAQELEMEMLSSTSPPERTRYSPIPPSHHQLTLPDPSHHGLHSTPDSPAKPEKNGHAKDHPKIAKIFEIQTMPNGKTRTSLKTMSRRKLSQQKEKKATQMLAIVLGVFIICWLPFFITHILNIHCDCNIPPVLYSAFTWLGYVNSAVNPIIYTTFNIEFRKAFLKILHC

As to `CN1CCc2c(n(CC(O)c3ccccc3)c3ccc(Cl)cc23)C1` (stereo not shown) [Compound 71], in assay [1] (setting [3]), the inhibition at 1 µM came to 21%. For the compound `CCC1c2c(c3cc(C)ccc3n2C#Cc2ccc(Cl)cc2)CCN1C` (stereo not shown) [Compound 162, 9-((4-chlorophenyl)ethynyl)-1-ethyl-2,6-dimethyl-2,3,4,9-tetrahydro-1H-pyrido[3,4-b]indole], the inhibition at 1 µM was found to be 27% in assay [2] (setting [4]) and 4% in assay [1] (setting [3]). With `CN1CCc2c(n(CCCc3ccccc3)c3ccc(Cl)cc23)C1` [Compound 29, 6-chloro-2,3,4,9-tetrahydro-2-methyl-9-(3-phenylpropyl)-1H-pyrido[3,4-b]indole], the inhibition at 1 µM in assay [1] (setting [3]) was 24%. For the compound `CCC1c2c(c3cc(C)ccc3n2/C=C(\C)c2ccc(Cl)cc2)CCN1C` (stereo not shown) [Compound 160, 9-(2-(4-chlorophenyl)prop-1-enyl)-1-ethyl-2,6-dimethyl-2,3,4,9-tetrahydro-1H-pyrido[3,4-b]indole], the inhibition at 1 µM was 84% in assay [2] (setting [4]) and -1% in assay [1] (setting [3]). As to `COc1ccc(C(O)Cn2c3c(c4cc(C)ccc42)CCN(C)C3)cc1OC` (stereo not shown) [Compound 66], the inhibition at 1 µM in assay [1] (setting [3]) was 9%. Take `CCC1c2c(c3cc(Cl)ccc3n2/C=C(\C)c2ccc(Cl)cc2)CCN1C` (stereo not shown) [Compound 100, 6-chloro-9-(2-(4-chlorophenyl)prop-1-enyl)-1-ethyl-2-methyl-2,3,4,9-tetrahydro-1H-pyrido[3,4-b]indole]: the inhibition at 1 µM was 42% in assay [2] (setting [4]) and -11% in assay [1] (setting [3]). As for `CN1CCc2c(n(CC(=O)Nc3ccc(F)cc3)c3ccc(Cl)cc23)C1` [Compound 15, 2-(6-chloro-1,2,3,4-tetrahydro-2-methylpyrido[3,4-b]indol-9-yl)-N-(4-fluorophenyl)acetamide], the inhibition at 1 µM in assay [1] (setting [3]) is -5%. Consider `CN1CCc2c(n(CC(=O)N(C)C)c3ccc(Cl)cc23)C1` [Compound 16, 2-(6-chloro-1,2,3,4-tetrahydro-2-methylpyrido[3,4-b]indol-9-yl)-N,N-dimethylacetamide], for which, in assay [1] (setting [3]), the inhibition at 1 µM is -7%.

`Cc1ccc2c(c1)c1c(n2C(=O)Cc2ccc(Cl)cc2)C(c2ccccc2)N(C)CC1` (stereo not shown) [Compound 163]: the inhibition at 1 µM is 29% in assay [2] (setting [4]) and -12% in assay [1] (setting [3]). For `C/C(=C\n1c2c(c3cc(C)ccc31)CCN(C)C2C)c1ccc(Cl)cc1` (stereo not shown) [Compound 161, 9-(2-(4-chlorophenyl)prop-1-enyl)-1,2,6-trimethyl-2,3,4,9-tetrahydro-1H-pyrido[3,4-b]indole], in that order: 93% and 0%.

Take `CC1c2c(c3cc(Cl)ccc3n2C#Cc2ccc(F)cc2)CCN1C` (stereo not shown) [Compound 128]: the inhibition at 1 µM in assay [2] (setting [4]) came to 24%; in assay [1] (setting [3]), 14%. For `Cc1ccc(CCn2c3c(c4cc(Cl)ccc42)CCN(C)C3C)cn1` (stereo not shown) [Compound 80], in that order: 82% and 5%. Consider `Cc1ccc2c(c1)c1c(n2CCC(=O)N2CCCCC2)CN(C)CC1` [Compound 43, 3-(1,2,3,4-tetrahydro-2,6-dimethylpyrido[3,4-b]indol-9-yl)-1-(piperidin-1-yl)propan-1-one], for which the inhibition at 1 µM in assay [1] (setting [3]) is -8%. Take `C/C(=C\n1c2c(c3cc(C)ccc31)CCN(C)C2C)c1ccccc1F` (stereo not shown) [Compound 166]: the inhibition at 1 µM in assay [2] (setting [4]) worked out at 92%; in assay [2] (compound concentration 1 μM, read-out: Percentage inhibition of ligand binding to 5-HT7 receptor) it was 92%; in assay [1] (setting [3]) it was 21%; in assay [1] (setting [5]) it was 21%. Further, the inhibition at 3 µM in assay [1] (setting [6]) was 12%. Further, in assay [1] (compound concentration 10 μM, read-out: Percentage inhibition of ligand binding to D2L receptor), the inhibition at 10 µM came to 50%. Consider `CN1CCc2c(n(CC(=O)N3CCCCC3)c3ccc(Cl)cc23)C1` [Compound 58, 2-(6-chloro-2-methyl-3,4-dihydro-1H-pyrido[3,4-b]indol-9(2H)-yl)-1-(piperidin-1-yl)ethanone], for which the inhibition at 1 µM in assay [1] (setting [3]) was -5%.

Regarding `CN1CCc2c(n(CCCC(=O)N3CCCCC3)c3ccc(Cl)cc23)C1` [Compound 44, 4-(6-chloro-1,2,3,4-tetrahydro-2-methylpyrido[3,4-b]indol-9-yl)-1-(piperidin-1-yl)butan-1-one], the inhibition at 1 µM in assay [1] (setting [3]) stood at 8%. With `Cc1ccc2c(c1)c1c(n2CCc2ccc(C(F)(F)F)nc2)CN(C)CC1` [Compound 5, 9-(2-(6-(trifluoromethyl)pyridin-3-yl)ethyl)-2,3,4,9-tetrahydro-2,6-dimethyl-1H-pyrido[3,4-b]indole], the inhibition at 1 µM in assay [1] (setting [3]) turned out to be 0%. Same read-out and setting: in the case of `Cc1ccc(C(O)Cn2c3c(c4cc(C)ccc42)CCN(C)C3)cc1` (stereo not shown) [Compound 72] it was 24%; in that of `Cc1ccc2c(c1)c1c(n2CC(=O)O)CN(C)CC1` [Compound 53, 2-(1,2,3,4-tetrahydro-2,6-dimethylpyrido[3,4-b]indol-9-yl)acetic acid], 6%; in that of `COc1ccc(C(O)Cn2c3c(c4cc(Cl)ccc42)CCN(C)C3)cc1OC` (stereo not shown) [Compound 70], 0%. Turning to `CN1CCc2c(n(CCC3CCCC3)c3ccc(Cl)cc23)C1` [Compound 35, 6-chloro-9-(2-cyclopentylethyl)-2,3,4,9-tetrahydro-2-methyl-1H-pyrido[3,4-b]indole], in assay [1] (setting [3]), the inhibition at 1 µM came to 3%. With `CN1CCc2c(n(CCN3CCCCC3)c3ccc(Cl)cc23)C1` [Compound 34, 6-chloro-2,3,4,9-tetrahydro-2-methyl-9-(2-(piperidin-1-yl)ethyl)-1H-pyrido[3,4-b]indole], the inhibition at 1 µM in assay [1] (setting [3]) came to 9%.

As for `CN1CCc2c(n(CC(O)c3ccccc3F)c3ccc(Cl)cc23)C1` (stereo not shown) [Compound 59, 2-(6-chloro-2-methyl-3,4-dihydro-1H-pyrido[3,4-b]indol-9(2H)-yl)-1-(2-fluorophenyl)ethanol], the inhibition at 1 µM in assay [1] (setting [3]) was found to be 35%. The same measure, in the same setting: the value for `Cc1ccc2c(c1)c1c(n2CC(C)(O)c2ccc(F)cc2)CN(C)CC1` (stereo not shown) [Compound 61, 1-(2,6-dimethyl-3,4-dihydro-1H-pyrido[3,4-b]indol-9(2H)-yl)-2-(4-fluorophenyl)propan-2-ol] was 41%; that for `CN1CCc2c(n(CC(=O)N(C)C3CCCCC3)c3ccc(Cl)cc23)C1` [Compound 18, 2-(6-chloro-1,2,3,4-tetrahydro-2-methylpyrido[3,4-b]indol-9-yl)-N-cyclohexyl-N-methylacetamide] was 0%.

With `Cc1ccc2c(c1)c1c(n2/C=C/c2ccccc2)CN(C)CC1` [Compound 92], the inhibition at 1 µM in assay [1] (setting [3]) and in assay [1] (setting [5]) was 47% in each case. Besides, the inhibition at 3 µM in assay [1] (setting [6]) came out at 72%. Turning to `COC(=O)Cn1c2c(c3cc(Cl)ccc31)CCN(C)C2` [Compound 54, methyl 2-(6-chloro-2-methyl-3,4-dihydro-1H-pyrido[3,4-b]indol-9(2H)-yl)acetate], the inhibition at 1 µM in assay [1] (setting [3]) is -16%. Still for that read-out and setting: in the case of `Cc1ccc2c(c1)c1c(n2CC(O)c2ccccc2)CN(C)CC1` (stereo not shown) [Compound 67] it was 21%; in that of `CN1CCc2c(n(CC(=O)N3CCCC3)c3ccc(Cl)cc23)C1` [Compound 40, 2-(6-chloro-1,2,3,4-tetrahydro-2-methylpyrido[3,4-b]indol-9-yl)-1-(pyrrolidin-1-yl)ethanone], -11%; in that of `Cc1ccc(CCCn2c3c(c4cc(Cl)ccc42)CCN(C)C3)cn1` [Compound 56, 6-chloro-2-methyl-9-(3-(6-methylpyridin-3-yl)propyl)-2,3,4,9-tetrahydro-1H-pyrido[3,4-b]indole], 9%.

For `CN1CCc2c(n(CC(=O)O)c3ccc(Cl)cc23)C1` [Compound 52, 2-(6-chloro-1,2,3,4-tetrahydro-2-methylpyrido[3,4-b]indol-9-yl)acetic acid], the inhibition at 1 µM in assay [1] (setting [3]) amounted to 1%. The same measure, in the same setting: the value for `CC(C)CCN(C)C(=O)Cn1c2c(c3cc(Cl)ccc31)CCN(C)C2` [Compound 14, 2-(6-chloro-1,2,3,4-tetrahydro-2-methylpyrido[3,4-b]indol-9-yl)-N-isopentyl-N-methylacetamide] was 6%; that for `Cc1ccc2c(c1)c1c(n2CC(=O)N2CCCCC2)CN(C)CC1` [Compound 57, 2-(2,6-dimethyl-3,4-dihydro-1H-pyrido[3,4-b]indol-9(2H)-yl)-1-(piperidin-1-yl)ethanone] was 6%. As to `CN1CCc2c(n(CC(C)(O)c3ccc(F)cc3)c3ccc(Cl)cc23)C1` (stereo not shown) [Compound 62, 1-(6-chloro-2-methyl-3,4-dihydro-1H-pyrido[3,4-b]indol-9(2H)-yl)-2-(4-fluorophenyl)propan-2-ol], the inhibition at 1 µM in assay [1] (setting [3]) was 81%. For the compound `CN1CCc2c(n(CC(=O)N3CCNCC3)c3ccc(Cl)cc23)C1` [Compound 55, 2-(6-chloro-2-methyl-3,4-dihydro-1H-pyrido[3,4-b]indol-9(2H)-yl)-1-(piperazin-1-yl)ethanone], the inhibition at 1 µM in assay [1] (setting [3]) was -6%. Still for that read-out and setting: the value for `COC(=O)Cn1c2c(c3cc(C)ccc31)CCN(C)C2` [Compound 21, methyl 2-(1,2,3,4-tetrahydro-2,6-dimethylpyrido[3,4-b]indol-9-yl)acetate] was -1%; that for `CN1CCc2c(n(CC(=O)NC3CCCCC3)c3ccc(Cl)cc23)C1` [Compound 17, 2-(6-chloro-1,2,3,4-tetrahydro-2-methylpyvrido[3,4-b]indol-9-yl)-N-cyclohexylacetamide] was -3%.

For the compound `Cc1ccc2c(c1)c1c(n2CC(O)c2ccccc2F)CN(C)CC1` (stereo not shown) [Compound 60, 2-(2,6-dimethyl-3,4-dihydro-1H-pyrido[3,4-b]indol-9(2H)-yl)-1-(2-fluorophenyl)ethanol], in assay [1] (setting [3]), the inhibition at 1 µM amounted to 18%.
